“Also recorded” adds a separate entry of the source.

One experiment relates to paw edema. Put plainly: Carrageenan paw edema, anti-inflammatory test. Conditions: rats, p.o., 3 hrs after carrageenan. (In the carrageenan paw model, swelling and tenderness develop within hours.)
The test system of experiment [1] is Prostaglandin and hydroxyicosatetraenoic acid (HETE) production. Conditions: bovine seminal vesicles and kidney; cited from earlier work.
Experiment [2] relates to Phenylquinone (PQ) Writhing. Put plainly: Phenylquinone (PQ) writhing. The experiment is classed as in vivo, mice. Conditions: for effect on the analgesia (pain relief effects) of aspirin: interaction term p. <.001; for writhing response, means: two-vehicle combination set at zero; for P.Q. WRITHING (INH. %) ± SEM: mice. The method, then:
The test sample is administered orally (mg/kg) to a group of 8 mice one hour before injection of PQ (2 mg/kg intraperitonilly). Greater than 50 percent (>50) inhibition of the number of writhes per group of animals observed during 5 to 10 minutes after PQ, relative to a vehicle treated group, indicates possible analgesic activity. [Irwin, Samuel, Psychopharmacologia, 13:22-257, 1968.] A test was conducted using alpha-tocopherol and aspirin. […] All dosing was done orally (PO). […] Again the writhing response was set at zero for the two-vehicle combination.
Background: Writhing tests count abdominal constrictions after an irritant is injected.

Turning to `CC1=C(/C=C/C(C)=C/C=C/C(C)=C/C=C/C=C(C)/C=C/C=C(C)/C=C/C2=C(C)CCCC2(C)C)C(C)(C)CCC1` [β-Carotene, ß-carotene], the “Mean Paw Volumes” value in the experiment with paw edema (A0 aspirin vehicle + B1 ß-carotene 10 mg/kg) is given as 86.0(.24) ml. x 10^-2; in the experiment with paw edema (A0 aspirin vehicle + B2 ß-carotene 30 mg/kg), 86.5(.14) ml. x 10^-2; in the experiment with paw edema (A0 aspirin vehicle + B3 ß-carotene 100 mg/kg), 81.6(.16) ml. x 10^-2; in the experiment with paw edema (A0 aspirin vehicle + B4 ß-carotene 300 mg/kg), 81.9(.21) ml. x 10^-2. Also, in experiment [1], the “Prostaglandin and hydroxyicosatetraenoic acid (HETE) production” value is reported as “considerably inhibited”.

Consider `Cc1c(C)c2c(c(C)c1O)CCC(C)(CCCC(C)CCCC(C)CCCC(C)C)O2` (stereo not drawn) [Alpha-tocopherol, alpha-tocopherol], for which the “effect on the analgesia (pain relief effects) of aspirin” value in experiment [2] (PO) is “antagonizes the pain relief effects of aspirin; also recorded: antagonism to the analgesia of aspirin”; in experiment [2] (PO, listed as Vitamin E), “significant antagonistic effect”. The “writhing response, means” value in experiment [2] (aspirin Veh., Vitamin E 100 mg.) is given as 1; in experiment [2] (aspirin Veh., Vitamin E 300 mg.), 2. The “P.Q. WRITHING (INH. %) ± SEM” value in experiment [2] (PO, A₀ aspirin vehicle + E₁ alpha-tocopherol 300mg/kg) is 3 ± 1%; in experiment [2] (PO, A₀ aspirin vehicle + E₂ alpha-tocopherol 100mg/kg), 1 ± 1%; in experiment [2] (PO, A₀ aspirin vehicle + E₃ alpha-tocopherol 30 mg/kg), 3 ± 1%; in experiment [2] (PO, A₀ aspirin vehicle + E₅ alpha-tocopherol 3 mg/kg), 3 ± 1%.

On to `CC(=O)Oc1ccccc1C(=O)O` [Aspirin, aspirin], for which the ED20 in experiment [2] (Mus musculus, PO, also used as dose level A₁, read-out: ED₂₀) worked out at 8.3 mg/kg. Besides, in experiment [2] (Mus musculus, PO, also used as dose level A₂, read-out: ED₅₀), the ED50 is 25 mg/kg. For the same compound, the ED80 in experiment [2] (Mus musculus, PO, also used as dose level A₃, read-out: ED₈₀) amounted to 75 mg/kg. For the same compound, the “writhing response, means” value in experiment [2] (aspirin ED20, Vitamin E Vehicle) worked out at 20; in experiment [2] (aspirin ED50, Vitamin E Vehicle) it was 48; in experiment [2] (aspirin ED80, Vitamin E Vehicle), 85. In addition, the “P.Q. WRITHING (INH. %) ± SEM” value in experiment [2] (PO, A₁ aspirin 8.3 mg/kg + E₀ alpha-tocopherol vehicle) was found to be 20 ± 1%; in experiment [2] (PO, A₂ aspirin 25 mg/kg + E₀ alpha-tocopherol vehicle) it was 48 ± 2%; in experiment [2] (PO, A₃ aspirin 75 mg/kg + E₀ alpha-tocopherol vehicle), 85 ± 2%. The “Mean Paw Volumes” value with paw edema (A1 aspirin 10 mg/kg + B0 ß-carotene vehicle) was 79.1 ml. x 10^-2; with paw edema (A2 aspirin 30 mg/kg + B0 ß-carotene vehicle) it was 73.9 ml. x 10^-2; in the experiment with paw edema (A3 aspirin 100 mg/kg + B0 ß-carotene vehicle) it was 58.9 ml. x 10^-2; in the experiment with paw edema (A4 aspirin 300 mg/kg + B0 ß-carotene vehicle), 38.8 ml. x 10^-2.

`CC1=C(/C=C/C(C)=C/C=C/C(C)=C/CO)C(C)(C)CCC1` [retinol]: the “Prostaglandin and hydroxyicosatetraenoic acid (HETE) production” value in experiment [1] is on record as “considerably inhibited”.

The values above are taken from patent publication EP0505841A2, “Analgesic composition containing beta-carotene” (MILES INC., priority 1991, dated 1992).
